Test results taken from article PMC5863496, “Mesobuthus Venom-Derived Antimicrobial Peptides Possess Intrinsic Multifunctionality and Differential Potential as Drugs” (Frontiers in Microbiology, 2018).
Ends that are not written are not given here.

Legend:
Assay in all cases: Inhibition-zone assay (CL)
Type in all cases: cell-based
[1] = test system: Bacillus megaterium CGMCC 1.0459; details: BM CGMCC 1.0459, N.A. = no activity at 0.8 nmol peptide each well
Method: (§1) The antimicrobial activity of seven peptides, including MeuFSPL-1, MeuFSPL-2, Marmelittin, Melittin, Meucin-22, Marcin-22, and MeuTXKβ1, was evaluated by the inhibition-zone assay previously described in our studies (Hultmark, [1998]; Zhu et al., [2012a]; Zhu and Gao, [2014]). Temperatures used were 30 or 37°C for bacteria or 28°C for fungi. Media used were Luria-Bertani (LB) Broth (10 g tryptone, 5 g yeast extract, and 5 g NaCl in 1 l of water) or Nutrient Broth (10 g peptone, 5 g beef extract powder, and 5 g NaCl in 1 l of water) or GYM(Isp2) (4 g yeast extract, 10 g malt extract, 4 g glucose, 2 g CaCO3 in 1 l of water) for bacteria or Potato Dextrose Broth (200 g patato and 20 g glucose in 1 l of water) for fungi. To make plates, 10 μl of microbial culture (~2 × 10^6 bacterial cells or fungal spores/ml) were mixed in 6 ml of medium containing 0.8% agar and poured into Peri dishes of 9.0 cm diameter. Wells with a diameter of 2 mm were punched into the medium, filled with 2 μl of sample each well. In this assay, three different doses of peptides were applied to three independent wells in one standard bacterial plate. After incubation overnight, inhibition zones were measured and used to calculate lethal concentrations (CL), a concentration just sufficient to inhibit bacterial growth (Hultmark, [1998]; Gao et al., [2009]). CL values are calculated from a plot of d^2 against log n, where d is the diameter (in cm) and n is the amount of sample applied in the well (in nmol). The plot is linear and thus CL can be calculated from the slope (k) and the intercept (m) of this plot. The formula used here is CL = 2.93/ak10^m/k, where “a” is the thickness of the bacterial plate and “CL” is in μM.

[2] = test system: Bacillus subtilis CGMCC 1.2428; details: BS CGMCC 1.2428, N.A. = no activity at 0.8 nmol peptide each well
Method: as §1

[3] = test system: Escherichia coli ATCC 25922; details: EC ATCC 25922, N.A. = no activity at 0.8 nmol peptide each well
Method: as §1

[4] = test system: Escherichia coli Am. J16c; details: EC Am. J16c, N.A. = no activity at 0.8 nmol peptide each well
Method: as §1

[5] = test system: Escherichia coli Am. J23a; details: EC Am. J23a, N.A. = no activity at 0.8 nmol peptide each well
Method: as §1

[6] = test system: Escherichia coli CIP. J14b; details: EC CIP. J14b, N.A. = no activity at 0.8 nmol peptide each well
Method: as §1

[7] = test system: Escherichia coli D. G2b; details: EC D. G2b, N.A. = no activity at 0.8 nmol peptide each well
Method: as §1

[8] = test system: Micrococcus luteus CGMCC 1.0290; details: ML CGMCC 1.0290, N.A. = no activity at 0.8 nmol peptide each well
Method: as §1

[9] = test system: Staphylococcus aureus J685; details: SA J685, N.A. = no activity at 0.8 nmol peptide each well
Method: as §1

[10] = test system: Staphylococcus aureus J698; details: SA J698, N.A. = no activity at 0.8 nmol peptide each well
Method: as §1

[11] = test system: Staphylococcus aureus J700; details: SA J700, N.A. = no activity at 0.8 nmol peptide each well
Method: as §1

[12] = test system: Staphylococcus warneri ATCC 1.2824; details: SW ATCC 1.2824, N.A. = no activity at 0.8 nmol peptide each well
Method: as §1

[13] = test system: Stenotrophomonas maltophilia CGMCC 1.1788; details: SMAL CGMCC 1.1788, N.A. = no activity at 0.8 nmol peptide each well
Method: as §1

[14] = test system: Streptococcus mutans ATCC 1.2499; details: SM ATCC 1.2499, N.A. = no activity at 0.8 nmol peptide each well
Method: as §1

[15] = test system: Streptococcus salivarius ATCC 1.2498; details: SSAL ATCC 1.2498, N.A. = no activity at 0.8 nmol peptide each well
Method: as §1

[16] = test system: Streptococcus sanguinis ATCC 1.2497; details: SSAN ATCC 1.2497, N.A. = no activity at 0.8 nmol peptide each well
Method: as §1

[17] = test system: methicillin-resistant Staphylococcus aureus P1374; details: MRSA P1374, N.A. = no activity at 0.8 nmol peptide each well
Method: as §1

[18] = test system: methicillin-resistant Staphylococcus aureus P1386; details: MRSA P1386, N.A. = no activity at 0.8 nmol peptide each well
Method: as §1

[19] = test system: methicillin-resistant coagulase-negative Staphylococcus P1369; details: MRCNS P1369, N.A. = no activity at 0.8 nmol peptide each well
Method: as §1

[20] = test system: methicillin-sensitive Staphylococcus aureus CGMCC 1.89; details: MSSA CGMCC 1.89, N.A. = no activity at 0.8 nmol peptide each well
Method: as §1

[21] = test system: penicillin-resistant Staphylococcus aureus P1383; details: PRSA P1383; inhibition-zone assay; N.A. = no activity at 0.8 nmol peptide each well
Method: as §1

[22] = test system: penicillin-resistant Staphylococcus epidermidis P1389; details: PRSE P1389, N.A. = no activity at 0.8 nmol peptide each well
Method: as §1

[23] = test system: penicillin-sensitive Staphylococcus epidermidis P1111; details: PSSE P1111, N.A. = no activity at 0.8 nmol peptide each well
Method: as §1

Substance | Lethal concentration (CL) [1] [µM] | Lethal concentration (CL) [2] [µM] | Lethal concentration (CL) [3] [µM] | Lethal concentration (CL) [5] [µM] | Lethal concentration (CL) [7] [µM] | Lethal concentration (CL) [9] [µM] | Lethal concentration (CL) [10] [µM] | Lethal concentration (CL) [11] [µM] | Lethal concentration (CL) [12] [µM] | Lethal concentration (CL) [13] [µM] | Lethal concentration (CL) [14] [µM] | Lethal concentration (CL) [15] [µM] | Lethal concentration (CL) [16] [µM] | Lethal concentration (CL) [17] [µM] | Lethal concentration (CL) [18] [µM] | Lethal concentration (CL) [19] [µM] | Lethal concentration (CL) [20] [µM] | Lethal concentration (CL) [21] [µM] | Lethal concentration (CL) [22] [µM] | Lethal concentration (CL) [23] [µM] | further results
FLFSLIPSAISGLISAFKGRRKRDLN-NH2 [MarMEL] | 2.86 | 3.13 | 6.41 | 4.69 | 6.24 | 8.41 | 6.24 | 10.86 | 0.18 | 4.14 | 2.85 | 4.70 | 4.70 | 2.60 | 8.11 | 3.01 | 4.87 | 2.35 | 3.12 | 4.24 | Lethal concentration (CL) [4]: 7.75 µM; Lethal concentration (CL) [6]: 8.41 µM; Lethal concentration (CL) [8]: 1.85 µM
FLFSLIPSAISGLINAFK-NH2 [MeuFSPL-2] | 2.67 | 4.01 | 12.16 | 37.43 | 21.42 | 5.36 | 4.11 | 8.44 | 8.65 | 3.52 | 5.23 | 5.36 | 2.70 | 3.61 | 5.13 | 3.88 | 3.14 | 3.52 | 5.13 | 4.77 | Lethal concentration (CL) [6]: 37.43 µM; Lethal concentration (CL) [8]: 1.50 µM
FFGHLFKLATKIIPSLFQRKKE [MUC-22] | 3.72 | 1.86 | 7.95 | 7.36 | 9.93 | 2.66 | 2.66 | 2.66 | 3.76 | 3.79 | 2.39 | 4.22 | 3.37 | 0.87 | 1.88 | 2.21 | 1.35 | 0.87 | 0.56 | 1.61 | Lethal concentration (CL) [4]: 7.49 µM; Lethal concentration (CL) [6]: 11.65 µM; Lethal concentration (CL) [8]: 2.71 µM
FFGHLFKLATKIIPSLFQ [MUC-18, reference compound] | – | 2.11 | – | 22.72 | 37.28 | 8.71 | 5.16 | 6.86 | 11.69 | 13.72 | 9.32 | 9.24 | 13.72 | 3.35 | 1.35 | 4.89 | 0.87 | 3.72 | 3.35 | 0.87 | Lethal concentration (CL) [4]: 22.72 µM; Lethal concentration (CL) [6]: 22.72 µM
FLFSLIPSAISGLISAFK-NH2 [MeuFSPL-1] | 2.10 | 4.74 | 12.50 | 25.00 | 25.00 | 14.72 | 4.80 | 10.92 | 2.81 | 1.13 | 4.22 | 4.80 | 5.20 | 6.16 | 6.24 | 8.48 | 5.27 | 2.81 | 7.36 | 7.36 | Lethal concentration (CL) [4]: 43.66 µM; Lethal concentration (CL) [8]: 2.26 µM
